Patent publication US20060040253A1, “Use of Smad3 inhibitor in the treatment of fibrosis dependent on epithelial to mesenchymal transition as in the eye and kidney” (priority 2003, published 2006)

Columns and labels:
[1] = tested on: renal tubular epithelial cells; experiment: TGF-β1-induced EMT and autoinduction in primary culture of renal tubular epithelial cells; format: cell-based, mouse; conditions: wild-type cells, TGF-β1 10 ng/ml
Experimental: Minced kidneys were washed with 3 changes of cold PBS containing 1 mM EDTA and digested in 0.25% trypsin solution (Gibco BRL, Grand Island, N.Y.) in a shaking incubator at 37° C. for 2 h. Trypsin was neutralized with growth medium (DMEM/10% FBS containing 100 unit/ml penicillin and 0.1 mg/ml streptomycin). The suspension was triturated by pipetting and passed through a 100 μm cell strainer (Becton Dickinson Labware, Franklin Lakes, N.J.). The filtrate consisting mostly of dispersed renal tubules was plated onto culture dishes (Nalge Nunc International, Naperville, Ill.) and 2-well chamber slides (Nunc Lab-Tek II-CC2, Nalge Nunc International), and incubated at 37° C. in a CO2 incubator with medium changes every 2 days. Experiments were carried out in serum-free DMEM. EMT was induced by an addition of 10 ng/ml TGF-β1 (R&D Systems, Minneapolis, Minn.). Mouse monoclonal anti-TGF-β neutralizing antibody (clone: 1D11, R & D Systems) was used at a concentration of 20 μg/ml with mouse IgG (Sigma, St Louis, Mo.) as a control.
Histological sections were prepared from tissues fixed in 4% paraformaldehyde in 0.1 M phosphate buffer, pH 7.4, and embedded in paraffin. Cryosections and bottom sheets of BioFlex were fixed in cold acetone and subjected to indirect immunofluorescence with anti-E-cadherin (clone: DECMA-1, Sigma, St Louis, Mo.), anti-α-SMA (clone: 1A4, NeoMarkers, Fremont, Calif.), anti-mouse type I collagen (Southern Biotechnology, Birmingham, Ala.) and anti-mouse F4/80 antibodies (clone: A3-1, BMA, Augst, Switzerland). As second antibodies, FITC-anti-rat IgG (Sigma), TRITC-anti-mouse IgG (Sigma) or Cy3-anti-goat IgG (Sigma) were used.
Cells and tissues were lysed in buffer containing 1% Nonidet P-40, 25 mM Tris-HCl, pH 7.5, 150 mM NaCl, 10 mM EDTA and 1:50 dilution of a protease inhibitor cocktail (P-2714, Sigma). Proteins were separated by SDS-PAGE, transferred to nitrocellulose membranes, and blocked in 5% skim milk in PBS. After incubation with primary antibodies against E-cadherin (clone: 36, Transduction Laboratories, Lexington, Ky.), α-SMA (clone: 1A4) and actin antibodies (Sc-1616, Santa Cruz Biochemicals, Santa Cruz, Calif.), blots were reacted with POD-conjugated goat anti-mouse IgG secondary antibody (Sigma) and developed with ECL (Amersham Biosciences, Buckingshire, UK).
Total RNA was extracted with TRIzol reagent (Invitrogen, Carlsbad, Calif.). RNA (20 μg/lane), separated in 1% agarose-formaldehyde gels and transferred to Hybond-HX nylon membranes (Amersham). Membranes were hybridized with cDNA probes for mouse Snail and TGF-β1 mRNA labeled with [P^32] dCTP by random primed DNA synthesis using the same primers as above (Rediprime II, Amersham Pharmacia Inc., Piscataway, N.J.). Filters were exposed to X-ray film at −80° C. for 2 to 3 d. […]

[2] = tested on: ARPE-19 cells; experiment: Production of PDGF, TGF-β1 and collagen type I in ARPE-19 cells treated with TGF-β2; format: cell-based, human; conditions: 48 hr
Experimental: Expression of PDGF-BB in ARPE-19 cells was assessed by western blot of cell lysates using PDGF-B (H-55, Santa Cruz Biotechnology, Inc.). Enzyme-linked immunosorbent assays (ELISAs) for PDGF-BB, PDGF-AB and TGF-β1 (R & D Systems, Inc., Minneapolis, Minn.) were used to determine the concentration of each peptide in the culture medium. ARPE-19 cells were grown in 6-well plates to near confluence and then cultured in 500 μl of serum-free DMEM/F-12 supplemented with antibiotics in the presence or absence of human recombinant TGF-β2 (1.0 ng/ml R & D Systems, Inc., Minneapolis, Minn.) for 48 or 96 hrs. Nine wells were prepared for each culture condition. Medium was processed for ELISAs for determination of the concentration of PDGF-BB and -AB according to the manufacturers' protocols. Medium (48 hr) was also processed for the determination of TGF-β1 by an ELISA kit (R & D Systems, Minneapolis, Minn.). Type I collagen was quantified in medium and sonicated cell lysates (48 hr) and processed for an ELISA system for type I collagen C-terminal peptide (PIP ELISA kit, Takara, Tokyo, Japan). Confluent cells grown on a chamber slides (Nunc) were immunostained for collagen type I (1:100 dilution in PBS, Southern Biotechnology).

[3] = tested on: α-TN4; experiment: Snail up-regulation in α-TN4 lens epithelial cell line after TGF-β addition; format: cell-based, mouse; conditions: prior to up-regulation of αSMA
[4] = tested on: ARPE-19 cells; experiment: Proliferation of ARPE-19 cells (MTT assay); format: cell-based, human; conditions: sparse cultures, up to 120 hr; PDGF-BB 5 ng/ml, TGF-β2 1 ng/ml
Experimental: Effects of adding TGF-β2, PDGF-BB, and/or anti-PDGF-B-neutralizing antibody on proliferation of ARPE-19 cells were assessed using the MTT assay (TACS MTT Cell Proliferation Assay Kit, Trevigen, Gaithersburg, Md., USA) according to manufacturer's instruction. ARPE 19 cells suspended in DMEM/F-12 supplemented with 15% fetal calf serum (2×10^4/100 μl/well) were seeded in 96-well culture plates (8 wells for each condition). After 12 hrs cells were changed to 100 μl serum-free culture medium and cultured for an additional 120 hr supplemented with PDGF-BB (5.0 ng/ml) or TGF-β2 (1.0 ng/ml), with either neutralizing anti-PDGF-B antibody (20 μg/ml) or non-immune IgG (20 μg/ml) as control. At the end of each culture interval, MTT reagent (10 μl) was added to each well and the incubation continued for an additional 5 hr at 37° C. Optical density at 570 nm was measured 4 hr after adding the lysis solution contained in the kit.

## TGF-β1: exogenous TGF-β1 (R&D Systems), growth factor used to induce EMT
[1]; 8 h, not in Smad3-null cells
  Snail mRNA (Northern blot): de novo expression of Snail mRNA
[1]; 24 h, vs non-treated wild-type, not in Smad3-null cells
  TGF-β1 mRNA expression (autoinduction): enhanced expression of TGF-β1 mRNA
[1]; 24 h, Smad3-null cells retained epithelial monolayer
  cell morphology (phase-contrast microscopy): spindle-shaped, fibroblastic appearance
[1]; 24 h, not seen in Smad3-null cells
  E-cadherin and α-SMA by dual immunofluorescence: Marked reduction of E-cadherin and de novo expression of α-SMA
[2]
  amount of type I collagen in culture medium and cell lysate (ELISA): increase

## TGF-β
[3]
  earliest time of snail up-regulation after TGF-β addition: 30 min

B1: PDGF-BB: exogenous PDGF-BB, a potent mitogen, 5.0 ng/ml (protein, UniProt P01127 82-190, looked up)
Platelet-derived growth …: SLGSLTIAEPAMIAECKTRTEVFEISRRLIDRTNANFLVWPPCVEVQRCSGCCNNRNVQCRPTQVQLRPVQVRKIEIVRKKPIFKKATVTLEDHLACKCETVAAARPVT
modifications: homodimer PDGF-BB
[4]
  growth of the cells (MTT assay): enhanced
